Measured values published in PubChem BioAssay (NCI).
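96-well plates; 48 h exposure; 5 concentrations. Endpoints by linear interpolation between flanking doses. Not reached: highest tested concentration assigned. GI50 is the concentration that inhibits growth by half. TGI: concentration producing complete growth inhibition.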

What was measured:
Assay in all cases: NCI tumour cell line growth inhibition, 48 h
MALME-3M melanoma = tested on: MALME-3M melanoma
SF-295 CNS = tested on: SF-295 CNS
OVCAR-8 ovarian = tested on: OVCAR-8 ovarian
CAKI-1 renal = tested on: CAKI-1 renal
MCF7 breast = tested on: MCF7 breast
U251 CNS = tested on: U251 CNS
NCI-H23 lung = tested on: NCI-H23 lung
T-47D breast = tested on: T-47D breast
SK-MEL-28 melanoma = tested on: SK-MEL-28 melanoma
SN12C renal = tested on: SN12C renal
DU-145 prostate = tested on: DU-145 prostate
HOP-62 NSCLC = tested on: HOP-62 NSCLC
786-0 renal = tested on: 786-0 renal
OVCAR-3 ovarian = tested on: OVCAR-3 ovarian
HCC-2998 colon = tested on: HCC-2998 colon
HS 578T breast = tested on: HS 578T breast
BT-549 breast = tested on: BT-549 breast
HCT-15 colon = tested on: HCT-15 colon
HOP-92 NSCLC = tested on: HOP-92 NSCLC
SR leukemia = tested on: SR leukemia
A549 NSCLC = tested on: A549 NSCLC
NCI-H460 lung = tested on: NCI-H460 lung
TK-10 renal = tested on: TK-10 renal
PC-3 prostate = tested on: PC-3 prostate
UACC-257 melanoma = tested on: UACC-257 melanoma
HT29 colon = tested on: HT29 colon
SW-620 colon = tested on: SW-620 colon
MOLT-4 leukemia = tested on: MOLT-4 leukemia
RPMI-8226 leukemia = tested on: RPMI-8226 leukemia
NCI-H226 lung = tested on: NCI-H226 lung
LOX IMVI melanoma = tested on: LOX IMVI melanoma
M14 melanoma = tested on: M14 melanoma
UACC-62 melanoma = tested on: UACC-62 melanoma
SNB-19 CNS = tested on: SNB-19 CNS
K-562 leukemia = tested on: K-562 leukemia
SK-MEL-2 melanoma = tested on: SK-MEL-2 melanoma
OVCAR-5 ovarian = tested on: OVCAR-5 ovarian
NCI-H522 lung = tested on: NCI-H522 lung
MDA-MB-435 = tested on: MDA-MB-435
SK-MEL-5 melanoma = tested on: SK-MEL-5 melanoma
MDA-MB-231 breast = tested on: MDA-MB-231 breast
SK-OV-3 ovarian = tested on: SK-OV-3 ovarian
RXF 393 renal = tested on: RXF 393 renal
CCRF-CEM leukemia = tested on: CCRF-CEM leukemia
IGROV1 ovarian = tested on: IGROV1 ovarian
SF-268 CNS = tested on: SF-268 CNS
HL-60(TB) leukemia = tested on: HL-60(TB) leukemia
COLO 205 colon = tested on: COLO 205 colon
OVCAR-4 ovarian = tested on: OVCAR-4 ovarian
SNB-75 CNS = tested on: SNB-75 CNS
ACHN renal = tested on: ACHN renal
HCT-116 colon = tested on: HCT-116 colon
KM12 colon = tested on: KM12 colon
SF-539 CNS = tested on: SF-539 CNS

With `Nc1c(C(=O)Nc2ccccn2)sc2nc3c(cc12)CCCCC3` the GI50 (MALME-3M melanoma) was 34.3 µM, the TGI (MALME-3M melanoma) was greater than 50 µM and the GI50 (SF-295 CNS) was 1.56 µM. For the same compound, the TGI (SF-295 CNS) was greater than 50 µM, the GI50 (OVCAR-8 ovarian) was 2.87 µM and the TGI (OVCAR-8 ovarian) was greater than 50 µM. The GI50 (CAKI-1 renal) was 3.51 µM, the TGI (CAKI-1 renal) was greater than 50 µM and the GI50 (MCF7 breast) was 0.851 µM. It also gave a TGI (MCF7 breast) greater than 50 µM, a GI50 (U251 CNS) of 2.64 µM and a TGI (U251 CNS) greater than 50 µM. The GI50 (NCI-H23 lung) was 2.19 µM, the TGI (NCI-H23 lung) was greater than 50 µM and the GI50 (T-47D breast) was 1.79 µM. For the same compound, the TGI (T-47D breast) was greater than 50 µM, the GI50 (SK-MEL-28 melanoma) was 6.23 µM and the TGI (SK-MEL-28 melanoma) was greater than 50 µM. The GI50 (SN12C renal) was 3.59 µM, the TGI (SN12C renal) was greater than 50 µM and the GI50 (DU-145 prostate) was 1.88 µM. The TGI (DU-145 prostate) was greater than 50 µM, the GI50 (HOP-62 NSCLC) was 3.46 µM and the TGI (HOP-62 NSCLC) was greater than 50 µM. It also gave a GI50 (786-0 renal) of 1.78 µM, a TGI (786-0 renal) greater than 50 µM and a GI50 (OVCAR-3 ovarian) of 1.63 µM. The TGI (OVCAR-3 ovarian) was greater than 50 µM, the GI50 (HCC-2998 colon) was 2.37 µM and the TGI (HCC-2998 colon) was greater than 50 µM. It also gave a GI50 (HS 578T breast) of 2.74 µM, a TGI (HS 578T breast) greater than 50 µM and a GI50 (BT-549 breast) of 2.36 µM. The TGI (BT-549 breast) was greater than 50 µM, the GI50 (HCT-15 colon) was 1.38 µM and the TGI (HCT-15 colon) was greater than 50 µM. It also gave a GI50 (HOP-92 NSCLC) of 27.9 µM, a TGI (HOP-92 NSCLC) greater than 50 µM and a GI50 (SR leukemia) of 0.521 µM. For the same compound, the TGI (SR leukemia) was greater than 50 µM, the GI50 (A549 NSCLC) was 2.47 µM and the TGI (A549 NSCLC) was greater than 50 µM. For the same compound, the GI50 (NCI-H460 lung) was 1.83 µM, the TGI (NCI-H460 lung) was greater than 50 µM and the GI50 (TK-10 renal) was 4.98 µM. It also gave a TGI (TK-10 renal) greater than 50 µM, a GI50 (PC-3 prostate) of 2.59 µM and a TGI (PC-3 prostate) greater than 50 µM. The GI50 (UACC-257 melanoma) was greater than 50 µM, the TGI (UACC-257 melanoma) was greater than 50 µM and the GI50 (HT29 colon) was 1.75 µM. The TGI (HT29 colon) was greater than 50 µM, the GI50 (SW-620 colon) was 3.19 µM and the TGI (SW-620 colon) was greater than 50 µM. It also gave a GI50 (MOLT-4 leukemia) of 2.32 µM, a TGI (MOLT-4 leukemia) greater than 50 µM and a GI50 (RPMI-8226 leukemia) of 1.98 µM. For the same compound, the TGI (RPMI-8226 leukemia) was greater than 50 µM, the GI50 (NCI-H226 lung) was 2.6 µM and the TGI (NCI-H226 lung) was greater than 50 µM. For the same compound, the GI50 (LOX IMVI melanoma) was 9.56 µM, the TGI (LOX IMVI melanoma) was greater than 50 µM and the GI50 (M14 melanoma) was 1.26 µM. The TGI (M14 melanoma) was greater than 50 µM, the GI50 (UACC-62 melanoma) was 3.06 µM and the TGI (UACC-62 melanoma) was greater than 50 µM. For the same compound, the GI50 (SNB-19 CNS) was 2.77 µM, the TGI (SNB-19 CNS) was greater than 50 µM and the GI50 (K-562 leukemia) was 0.987 µM. For the same compound, the TGI (K-562 leukemia) was greater than 50 µM, the GI50 (SK-MEL-2 melanoma) was 2.08 µM and the TGI (SK-MEL-2 melanoma) was greater than 50 µM. It also gave a GI50 (OVCAR-5 ovarian) of 3.8 µM, a TGI (OVCAR-5 ovarian) greater than 50 µM and a GI50 (NCI-H522 lung) of 2.11 µM. It also gave a TGI (NCI-H522 lung) greater than 50 µM, a GI50 (MDA-MB-435) of 0.25 µM and a TGI (MDA-MB-435) greater than 50 µM. The GI50 (SK-MEL-5 melanoma) was 2.13 µM, the TGI (SK-MEL-5 melanoma) was greater than 50 µM and the GI50 (MDA-MB-231 breast) was 3.83 µM. For the same compound, the TGI (MDA-MB-231 breast) was greater than 50 µM, the GI50 (SK-OV-3 ovarian) was 2.14 µM and the TGI (SK-OV-3 ovarian) was greater than 50 µM. The GI50 (RXF 393 renal) was 1.4 µM, the TGI (RXF 393 renal) was 4.86 µM and the GI50 (CCRF-CEM leukemia) was 1.91 µM. The TGI (CCRF-CEM leukemia) was greater than 50 µM, the GI50 (IGROV1 ovarian) was 3.58 µM and the TGI (IGROV1 ovarian) was greater than 50 µM. The GI50 (SF-268 CNS) was 4.89 µM, the TGI (SF-268 CNS) was greater than 50 µM and the GI50 (HL-60(TB) leukemia) was 1.34 µM. It also gave a TGI (HL-60(TB) leukemia) greater than 50 µM, a GI50 (COLO 205 colon) of 1.42 µM and a TGI (COLO 205 colon) greater than 50 µM. For the same compound, the GI50 (OVCAR-4 ovarian) was 4.09 µM, the TGI (OVCAR-4 ovarian) was greater than 50 µM and the GI50 (SNB-75 CNS) was 2.35 µM. It also gave a TGI (SNB-75 CNS) greater than 50 µM, a GI50 (ACHN renal) of 2.71 µM and a TGI (ACHN renal) greater than 50 µM. The GI50 (HCT-116 colon) was 1.77 µM, the TGI (HCT-116 colon) was greater than 50 µM and the GI50 (KM12 colon) was 1.95 µM. The TGI (KM12 colon) was greater than 50 µM, the GI50 (SF-539 CNS) was 1.39 µM and the TGI (SF-539 CNS) was greater than 50 µM.
